SMILES strings stand for the structures. pIC50: −log10 of the molar value.

A word on the pIC50: it is the negative decadic logarithm of the IC50, by convention in mol/L. Low readings indicate a high IC50, high ones a low IC50.

The test system of experiment [1] is IL-4 stimulated CD23 upregulation in human Ramos B cells (JAK-1/JAK-3, Stat-6). As to the kind of experiment: Assay for Ramos B-Cell Line Stimulated with IL-4 (CD23 upregulation, FACS). The class given is cell-based. The conditions noted are these: Table III Example 3. An outline of the steps: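 Flow cytometry of CD23 staining after 20-24 h IL-4 stimulation (50 units/mL final) of human Ramos B cells in RPMI with 5% serum. Cells, 5×10^4 per point, received compound or DMSO vehicle for 1 h at 37° C prior to stimulation.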

The subject of experiment [2] is IFNγ induced ICAM-1 (CD54) up-regulation in A549 lung epithelial cells (JAK/Stat pathway). As to the kind of experiment: A549 Epithelial Line Stimulated with IFNγ (ICAM-1 surface expression, flow cytometry). It counts as cell-based, human. The conditions noted are these: Table III Example 5. From the text: The activity of the compounds of the invention may additionally be characterized by assaying the effect of the 2,4-pyrimidinediamine compounds described herein on A549 lung epithelial cells and U937 cells. A549 lung epithelial cells and U937 cells up-regulate ICAM-1 (CD54) surface expression in response to a variety of different stimuli. Therefore, using ICAM-1 expression as readout, test compound effects on different signaling pathways can be assessed in the same cell type. Stimulation with IL-1β through the IL-1β receptor activates the TRAF6/NFκB pathway resulting in up-regulation of ICAM-1. IFNγ induces ICAM-1 up-regulation through activation of the JAK1/JAK2 pathway. The up-regulation of ICAM-1 can be quantified by flow cytometry across a compound dose curve and EC50 values are calculated. Exemplary assays of this type are described in greater detail in Examples 5 and 6.
A549 lung epithelial cells up-regulate ICAM-1 (CD54) surface expression in response to a variety of different stimuli. Therefore, using ICAM-1 expression as readout, compound effects on different signaling pathways can be assessed in the same cell type. IFNγ up-regulates ICAM-1 through activation of the JAK/Stat pathway. In this example, the up-regulation of ICAM-1 by IFNγ was assessed.
The A549 lung epithelial carcinoma cell line originated from the American Type Culture Collection. Routine culturing was with F12K media (Mediatech Inc., Lenexa, Kans., Cat. No. 10-025-CV) with 10% fetal bovine serum, 100 I.U. penicillin and […] streptomycin (complete F12k media). Cells were incubated in a humidified atmosphere of 5% CO2 at 37° C. Prior to use in the assay, A549 cells were washed with PBS and trypsinized (Mediatech Inc., Cat. No. 25-052-CI) to lift the cells. The trypsin cell suspension was neutralized with complete F12K media and centrifuged to pellet the cells. The cell pellet was resuspended in complete F12K media at a concentration of 2.0×10^5/mL. Cells were seeded at 20,000 per well, 100 μL total volume, in a flat bottom tissue culture plate and allowed to adhere overnight.
On day two, A549 cells were pre-incubated with a 2,4-pyrimidinediamine test compound or DMSO (control) (Sigma-Aldrich, St. Louis, Mo., Catalog No. D2650) for 1 hour. The cells were then stimulated with IFNγ (75 ng/mL) (Peprotech Inc., Rocky Hill, N.J., Cat. No. 300-02) and allowed to incubate for 24 hours. The final test compound dose range was 30 μM to 14 nM in 200 μL F12K media containing 5% FBS, 0.3% DMSO.
On day three, the cell media was removed and the cells were washed with 200 μL PBS (phosphate buffered saline). Each well was trypsinized to dissociate the cells, then neutralized by addition of 200 μL complete F12K media. Cells were pelleted and stained with an APC conjugated mouse anti-human ICAM-1 (CD54) (BD Pharmingen, San Diego, Calif., Catalog #559771) antibody for 20 minutes at 4° C. Cells were washed with ice cold FACS buffer (PBS+2% FBS) and surface ICAM-1 expression was analyzed by flow cytometry. Detection was performed using a BD LSR I System Flow Cytometer, purchased from BD Biosciences of San Jose, Calif. Events were gated for live scatter and the geometric mean was calculated (Becton-Dickinson CellQuest software version 3.3, Franklin Lakes, N.J.). Geometric means were plotted against the compound concentration to generate a dose response curve.

Experiment [3] relates to primary human T-cells (IL-2 induced proliferation, JAK-1/JAK-3, Stat-5). The experiment can be described thus: Primary Human T-Cell Proliferation Assay Stimulated with IL-2 (CellTiter-Glo). The class given is cell-based. The note with it: Table III Example 4. An outline of the steps: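 Read-out is intracellular ATP luminescence (CellTiter-Glo) after 72 h at 37 °C of IL-2-driven growth. Cells, pre-stimulated via TCR and CD28 then washed free of IL-2, were resuspended in Yssel's medium, given 80 U/mL IL-2 in the cell suspension plus duplicate compound; unstimulated wells lacked IL-2.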
A general note: Cellular ATP, detected with luciferase, serves as a proxy for viable cell number.

Experiment [4] relates to IFNγ induced ICAM-1 (CD54) up-regulation in U937 human monocytic cells (JAK/Stat pathway). The experiment can be described thus: U937 IFNγ ICAM1 FACS Assay. It counts as cell-based. The conditions noted are these: Table III Example 6; 10 ng/mL IFNγ, 18-24 hours. An outline of the steps:
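Flow cytometry gave ICAM-1 (CD54) up-regulation as ICAM-APC geometric mean within the live-cell gate, alongside % viable cells. Human monocytic U937 cells received 3-fold serial compound dilutions for 30 min at 37 °C, followed by IFNγ stimulation lasting 18–24 h. Dose curves yielded EC50s.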

As for `CCCN(Cc1ccc(Nc2nc(Nc3ccc(S(N)(=O)=O)cc3)ncc2F)cc1)S(=O)(=O)CC` [Compound I-17, N2-(4-aminosulfonyl)phenyl-N4-[4-(N-ethylsulfonyl-N-propylamino)methyl]phenyl-5-fluoro-2,4-pyrimidinediamine], the results for the pIC50 in experiment [1], in experiment [2] and in experiment [3] were 6.78, 5.08 and 5.97, respectively.
In the case of `CC(C)S(=O)(=O)NCc1ccc(Nc2nc(Nc3ccc(S(N)(=O)=O)cc3)ncc2F)cc1` [Compound I-65, N2-(4-aminosulfonyl)phenyl-5-fluoro-N4-(4-isopropylsulfonylaminomethyl)phenyl-2,4-pyrimidinediamine], the pIC50 in experiment [1] is 6.68; in experiment [2], 4.98; in experiment [3] it was 6.20.
For `Cc1cnc(Nc2ccc(S(N)(=O)=O)cc2)nc1Nc1ccc2c(c1)CN(S(=O)(=O)C1CC1)C2` [II-9, N2-(4-Aminosulfonyl-phenyl)-N4-[(2-cyclopropylsulfonyl)-isoindolin-5-yl]-5-methyl-2,4-pyrimidinediamine], the pIC50 in experiment [1] was 6.93; in experiment [4] it was 5.95; in experiment [3], 6.56.

These data come from patent publication US9481654B2, “Compositions and methods for inhibition of the JAK pathway” (Rigel Pharmaceuticals, Inc., priority 2006, dated 2016).
